Laboratory results as given in publication PMC9645375, “Pattern enrichment analysis for phage selection of stapled peptide ligands” (Chemical Science, 2022).
Numbered stars: 1 amine (or outer) side, 2 acyl side, 3 side chain; on linkers, the order of the positions; unused ones are H or OH. Bridge positions count the residues as written; N and C are the ends. Peptide text beside a SMILES is read from it. X1 = O=C(C[*:1])NCCCCCNC(=O)C[*:2]

Experiments:
[1] = CD measurement of helical content; assay type: physicochemical
[2] = molecular target: interaction between SARS-CoV-2 spike RBD and ACE2 (Severe acute respiratory syndrome coronavirus 2, UniProt P0DTC2); assay: biochemical; assay type: binding; conditions: n = 3
[3] = molecular target: T1, HDM2 (human double minute 2) (Homo sapiens, UniProt Q00987); assay: Fluorescence polarisation competition binding assay against FAM-ATSP-3848; conditions: for inhibition of FAM-ATSP-3848 binding to HDM2 (in words): fluorescence polarisation, 100 nM HDM2, 10 nM FAM-ATSP-3848
T1 construct: His-tag; made in house
T1 sequence (Q00987 whole entry): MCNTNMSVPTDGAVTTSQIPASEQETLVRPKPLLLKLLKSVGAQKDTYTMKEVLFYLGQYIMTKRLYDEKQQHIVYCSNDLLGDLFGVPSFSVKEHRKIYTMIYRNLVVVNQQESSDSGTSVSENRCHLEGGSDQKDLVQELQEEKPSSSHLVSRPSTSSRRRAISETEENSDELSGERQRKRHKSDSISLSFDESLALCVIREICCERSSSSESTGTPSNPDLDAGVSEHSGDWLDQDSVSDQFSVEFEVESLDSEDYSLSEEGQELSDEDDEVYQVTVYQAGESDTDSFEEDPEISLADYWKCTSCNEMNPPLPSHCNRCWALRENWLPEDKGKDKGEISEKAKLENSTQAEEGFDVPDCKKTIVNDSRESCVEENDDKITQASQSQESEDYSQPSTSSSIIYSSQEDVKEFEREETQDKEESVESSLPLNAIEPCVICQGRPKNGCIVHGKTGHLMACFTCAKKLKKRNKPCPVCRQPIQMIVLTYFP
Method: Fig. 4 Position–amino acid pattern enrichment analysis of the HDM2-R3 pool. (a) Pattern enrichment score calculation. For both sequence data (FASTQ), the abundance of each position–amino acid pattern was determined. Enrichment values were calculated as the ratio of abundance in the selected sample to that in the control sample. (b) Venn diagram showing pattern coverage (white, whole space of three-window patterns; blue, patterns found in Amp-R3 dataset; red, patterns found in HDM2-R3 dataset). (c) Scattering plot indicating the abundance of control (x-axis) and HDM2-R3 selected sample (y-axis). Red circles are patterns with log2(ratio) values greater than 8. (d) Position–amino acid patterns ranked in the top 20. (e) WebLogo depicting enriched sequences determined from enriched patterns with log2(ratio) values greater than 8. (f) Sequences and helical wheel diagrams of HDM2-p13 and HDM2-opt peptides. Highly enriched residues are coloured red. (g) Fluorescence polarisation assay for competitive inhibition. Peptides (50 nM to 50 μM) were mixed with 100 nM HDM2 and 10 nM FAM-ATSP-3848. […] Error bar represents SD (n = 3).
Competition binding assay
The peptides (50 nM–50 µM) was mixed with 100 nM of HDM2 and 10 nM of FAM-AT P S-3848 in HBS buffer (10 mM HEPES, 150 mM NaCl, pH 7.5). The fluorescence polarization was measured by ARVO MX plate […]
values of peptide inhibitors were calculated by nonlinear regression analysis using Prism (GraphPad Software).
Pull-down competition binding assay
Recombinant SARS-CoV-2 Spike RBD His Biotin Protein (R&D Systems, BT10500) at 4 µg/mL concentration in HBS buffer was incubated with 3 mg/mL of DynaBeads M-280 (ThermoFisher) for 2 hours at 4 °C. […]
After one hour incubation at room temperature, the beads were rinsed three times with HBS-T ( 2 0 0 µL/well). […] The chemiluminescent bands were detected using LuminoGraphI (ATTO) with ImageSaver6 software. From the band intensities, IC50 values of peptide inhibitors were calculated by nonlinear regression analysis using Prism (GraphPad Software).

| Structure (SMILES) | conformational preference (in words) [1] | helical content ([1]; pH 7.5) [%] | IC50 [2] [µM] | inhibition of FAM-ATSP-3848 binding to HDM2 (in words) [3] | IC50 ([3]; competitive inhibition FP, peptides 50 nM to 50 μM, 100 nM HDM2, 10 nM FAM-ATSP-3848, HBS buffer (10 mM HEPES, 150 mM NaCl, pH 7.5), SD, n = 3) [µM] | helical content ([1]; CD, 25% TFE, 30 µM peptide, HBS buffer (10 mM HEPES, 150 mM NaCl, pH 7.5), calculated by BeStSel web server) [%] |
| --- | --- | --- | --- | --- | --- | --- |
| CC(C)C[C@@H]1NC(=O)[C@@H](NC(=O)[C@@H](N)[C@@H](C)O)CSCC(=O)NCCCCCNC(=O)CSC[C@@H](C(=O)N[C@@H](Cc2ccccc2)C(N)=O)NC(=O)[C@H](CCC(=O)O)NC(=O)[C@H](Cc2ccccc2)NC(=O)[C@H](Cc2c[nH]c3ccccc23)NC(=O)[C@H](CO)NC(=O)[C@H](CO)NC1=O [CoV-2-p2] (H-TCLSSWFECF-NH2; linker 2-9 via X1) | prefer a helical conformation | 45 | 12.9 ± 4.9 |  |  |  |
| CC(C)C[C@@H]1NC(=O)[C@H](Cc2ccc(O)cc2)NC(=O)[C@H](CC(=O)O)NC(=O)[C@H](Cc2ccccc2)NC(=O)CNC(=O)[C@H](Cc2c[nH]c3ccccc23)NC(=O)[C@@H](NC(=O)[C@@H](N)[C@@H](C)O)CSCC(=O)NCCCCCNC(=O)CSC[C@@H](C(=O)N[C@@H](Cc2c[nH]c3ccccc23)C(N)=O)NC1=O [CoV-2-p5] (H-TCWGFDYLCW-NH2; linker 2-9 via X1) |  | 12 | 3.8 ± 3.3 |  |  |  |
| CC(C)C[C@H](NC(=O)[C@@H]1CSCC(=O)NCCCCCNC(=O)CSC[C@H](NC(=O)[C@@H]2CCCN2)C(=O)N[C@@H](Cc2ccccc2)C(=O)N[C@@H](Cc2ccc(O)cc2)C(=O)N[C@@H](CC(=O)O)C(=O)N[C@@H](Cc2ccc(O)cc2)C(=O)N[C@@H](Cc2c[nH]c3ccccc23)C(=O)N[C@@H](CCC(N)=O)C(=O)N1)C(N)=O [HDM2-opt] (H-PCFYDYWQCL-NH2; linker 2-9 via X1) |  |  |  | exhibited effective inhibition |  |  |
| CC(C)C[C@H](NC(=O)[C@@H]1CSCC(=O)NCCCCCNC(=O)CSC[C@H](NC(=O)[C@H](C)N)C(=O)N[C@@H](Cc2ccccc2)C(=O)N[C@@H](CC(=O)O)C(=O)N[C@@H](CCC(=O)O)C(=O)N[C@@H](Cc2ccc(O)cc2)C(=O)N[C@@H](Cc2c[nH]c3ccccc23)C(=O)N[C@@H](CCC(N)=O)C(=O)N1)C(N)=O [HDM2-p13] (H-ACFDEYWQCL-NH2; linker 2-9 via X1) |  |  |  | inhibited the high-affinity binding | 4.8 ± 0.6 | 43 |
